Columns and labels:
PSMA on LNCaP cells [1] = biological target: T1, PSMA on LNCaP cells (Homo sapiens, UniProt Q04609); assay: cell-based
Experimental: The PSMA expressing human prostate cancer cell line, LNCaP, was obtained from the American Type Culture Collection. […] LNCaP cells were maintained in RPMI-1640 medium supplemented with 10% fetal bovine serum (Hyclone), 4 mM L-glutamine, 1 mM sodium pyruvate, 10 mM N-2-hydroxyethylpiperazine-N-2-ethanesulfonic acid (HEPES), 2.5 mg/mL D-glucose, and 50 μg/mL gentamicin in a humidified incubator at 37° C./5% CO2. Cells were removed from flasks for passage or for transfer to 12-well assay plates by incubating them with 0.25% trypsin/ethylenediaminetetraacetic acid (EDTA).
Briefly, LNCaP cells were plated 72 h prior to the experiment to achieve a density of approximately 5×10^5 cells/well (in triplicate) in RPMI-1640 medium supplemented with 0.25% bovine serum albumin. The cells were incubated for 2 h with 1 nM ^99mTc-MIP-1427 in RPMI-1640 medium containing 0.00125% w/v bovine serum albumin [3] in the presence of 0.001-10,000 nM test compounds. Radioactive incubation media was then removed by pipette and the cells were washed twice using 1 mL ice-cold PBS 1× solution. Cells were harvested from the plates following treatment with 1 mL 1M NaOH and transferred to tubes for radioactive counting using a 2470 Wizard^2 Automatic Gamma Counter (Perkin Elmer). […] IC50 values were determined by fitting the data points to a sigmoidal Hills1 curve in Origin software.

[2] = test system: LNCaP xenograft tumor-bearing mice; assay: Biodistribution of 225Ac-macropa-RPS-070 in LNCaP xenograft mice; format: in vivo; details: 4-96 h; no accumulation in liver, spleen, bone
Experimental: Cell Culture. […] Cell culture supplies were from Invitrogen unless otherwise noted.
Inoculation of Mice with Xenografts. All animal studies were approved by the Institutional Animal Care and Use Committee of Weill Cornell Medicine and were undertaken in accordance with the guidelines set forth by the USPHS Policy on Humane Care and Use of Laboratory Animals. Animals were housed under standard conditions in approved facilities with 12 h light/dark cycles. Food and water was provided ad libitum throughout the course of the studies. Hairless male nu/nu mice were purchased from the Jackson Laboratory. For inoculation in mice, LNCaP cells were suspended at 4×10^7 cells/mL in a 1:1 mixture of PBS:Matrigel (BD Biosciences). Each mouse was injected in the left flank with 0.25 mL of the cell suspension. Biodistributions were conducted when tumors were in the range 100-400 mm^3.
Biodistribution of ^225Ac-macropa-RPS-070 in LNCaP xenograft mice. […] Tissues were weighed and counted on a 2470 Wizard Automatic Gamma Counter (Perkin Elmer). 1% ID/mL samples were counted prior to and following each set of tissue samples to enable decay correction to be undertaken. Counts were corrected for decay and for activity injected, and tissue uptake was expressed as percent injected dose per gram (% ID/g). Standard error measurement was calculated for each data point.

PSMA on LNCaP cells [3] = biological target: T1, PSMA on LNCaP cells; parameters: host or cells: LNCaP; details: binding to PSMA on LNCaP cells; cited from earlier work

T1 sequence (Q04609 whole entry): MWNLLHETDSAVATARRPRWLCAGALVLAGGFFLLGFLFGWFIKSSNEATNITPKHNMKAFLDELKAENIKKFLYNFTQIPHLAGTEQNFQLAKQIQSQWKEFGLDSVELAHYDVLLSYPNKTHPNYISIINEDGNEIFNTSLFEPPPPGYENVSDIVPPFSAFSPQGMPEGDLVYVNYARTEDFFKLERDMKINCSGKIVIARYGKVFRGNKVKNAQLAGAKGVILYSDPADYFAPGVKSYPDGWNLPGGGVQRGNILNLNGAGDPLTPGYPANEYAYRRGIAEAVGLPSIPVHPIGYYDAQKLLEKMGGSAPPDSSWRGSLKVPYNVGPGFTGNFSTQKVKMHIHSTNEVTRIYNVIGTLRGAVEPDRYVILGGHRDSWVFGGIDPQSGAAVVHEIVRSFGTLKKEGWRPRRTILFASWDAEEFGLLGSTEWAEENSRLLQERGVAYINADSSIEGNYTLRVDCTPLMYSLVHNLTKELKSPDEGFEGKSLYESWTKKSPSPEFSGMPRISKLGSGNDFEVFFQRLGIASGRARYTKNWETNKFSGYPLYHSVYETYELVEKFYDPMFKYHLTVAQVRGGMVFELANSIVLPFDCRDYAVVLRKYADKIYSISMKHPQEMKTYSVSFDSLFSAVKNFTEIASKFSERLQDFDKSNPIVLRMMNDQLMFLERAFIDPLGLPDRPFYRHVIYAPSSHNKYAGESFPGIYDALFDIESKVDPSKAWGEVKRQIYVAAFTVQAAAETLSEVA

Work on `O=C(O)CC[C@H](NC(=O)N[C@@H](CCCCNC(=O)Nc1cccc(-c2cn(CCOCCOCCOCCC(=O)N[C@@H](CCCCNC(=S)Nc3cc(CN4CCOCCOCCN(Cc5cccc(C(=O)O)n5)CCOCCOCC4)nc(C(=O)O)c3)C(=O)NCCOCCOCCOCCOCCOCCOCCOCCOCCC(=O)N[C@@H](CCCCNC(=O)CCCc3ccc(I)cc3)C(=O)O)nn2)c1)C(=O)O)C(=O)O` [RPS-074, (((S)-1-Carboxy-5-(3-(3-(1-((14S,45S)-45-carboxy-14-(4-(3-(2-carboxy-6-((16-((6-carboxypyridin-2-yl)methyl)-1,4,10,13-tetraoxa-7,16-diazacyclooctadecan-7-yl)methyl)pyridin-4-yl)thioureido)butyl)-54-(4-iodophenyl)-12,15,43,51-tetraoxo-3,6,9,19,22,25,28,31,34,37,40-undecaoxa-13,16,44,50-tetraazatetrapentacontyl)-1H-1,2,3-triazol-4-yl)phenyl)ureido)pentyl)carbamoyl)-L-glutamic acid] yielded an IC50 (PSMA on LNCaP cells [1]) of 12 ± 3.4 nM.
For `O=C(O)CC[C@H](NC(=O)N[C@@H](CCCCNC(=O)Nc1cccc(-c2cn(CCOCCOCCOCCOCCOCCOCCC(=O)N[C@@H](CCCCNC(=S)Nc3cc(CN4CCOCCOCCN(Cc5cccc(C(=O)O)n5)CCOCCOCC4)nc(C(=O)O)c3)C(=O)N[C@@H](CCCCNC(=O)Cc3ccc(I)cc3)C(=O)O)nn2)c1)C(=O)O)C(=O)O` [macropa-RPS-070, (((S)-1-Carboxy-5-(3-(3-(1-((23S,26S)-26-carboxy-23-(4-(3-(2-carboxy-6-((16-((6-carboxypyridin-2-yl)methyl)-1,4,10,13-tetraoxa-7,16-diazacyclooctadecan-7-yl)methyl)pyridin-4-yl)thioureido)butyl)-33-(4-iodophenyl)-21,24,32-trioxo-3,6,9,12,15,18-hexaoxa-22,25,31-triazatritriacontyl)-1H-1,2,3-triazol-4-yl)phenyl)ureido)pentyl)carbamoyl)-L-glutamic acid], the “Retention of 225Ac in vivo” value [2] was “can stably retain ^225Ac in vivo over several days”.
For “^99mTc-((7S,12S,16S)-1-(1-(carboxymethyl)-1H-imidazol-2-yl)-2-((1-(carboxymethyl)-1H-imidazol-2-yl)methyl)-9,14-dioxo-2,8,13,15-tetraazaoctadecane-7,12,16,18-tetracarboxylic acid technetium tricarbonyl complex) [^99mTc-MIP-1427]”, the Kd (PSMA on LNCaP cells [3]) is given as 0.64 ± 0.46 nM.

Reference: patent publication US11285227B2, “Trifunctional constructs with tunablepharmacokinetics useful in imaging and anti-tumor therapies” (CORNELL UNIVERSITY, priority 2017, dated 2022)
